For test [1], the system named is mutant DNA gyrase A protein. The test can be described thus: Supercoiling inhibition and DNA cleavage assays. Format: biochemical, Streptococcus pneumoniae. The following applies: for MIC relative to maximal serum drug concentrations reported for standard dosage regimens: enzyme inhibition or DNA cleavage assays. The protocol: (§1) The functional activity of the purified mutant DNA gyrase A protein obtained from the fluoroquinolone resistant Streptococcus pneumoniae was compared to wild-type DNA gyrase A protein in supercoiling inhibition assays and DNA cleavage assays as described in Pan et al., and Barnard et al., supra. A concentration range of antibiotics was added to contact both the wild-type and mutant proteins. In addition, the affinities for each antibiotic and both the wild-type and mutant proteins were derived according to the method described in Roychoudhury, et al., supra.

Test [2] relates to patient derived HCV NS5B RNA-dependent RNA polymerase. Format: biochemical, hepatitis C virus.
Test [3] has as its target wild-type HCV NS5B RNA-dependent RNA polymerase (Hepatitis C virus genotype 2b, UniProt Q9DHD6). Format: biochemical.
Test [4] concerns the target T1, wild-type lanosterol 14 alpha-demethylase protein (Candida albicans, UniProt P10613). Details: A 60 kDa protein, corresponding to the lanosterol 14 alpha-demethylase protein, was produced from this eukaryotic expression system; made in house; host or cells: cell-free coupled reticulocyte lysate (TNT T7 Quick for PCR DNA, Promega). The conditions noted are these: typically reported; cited from earlier work.

The target of test [5] is T2, mutant lanosterol 14 alpha-demethylase proteins (Candida albicans, UniProt P10613).
T2 construct: IC50; other: mutant proteins; other: at 100 nM; A 60 kDa protein, corresponding to the lanosterol 14 alpha-demethylase protein, was produced from this eukaryotic expression system
T2 sequence (P10613 whole entry, looked up, stated change not applied): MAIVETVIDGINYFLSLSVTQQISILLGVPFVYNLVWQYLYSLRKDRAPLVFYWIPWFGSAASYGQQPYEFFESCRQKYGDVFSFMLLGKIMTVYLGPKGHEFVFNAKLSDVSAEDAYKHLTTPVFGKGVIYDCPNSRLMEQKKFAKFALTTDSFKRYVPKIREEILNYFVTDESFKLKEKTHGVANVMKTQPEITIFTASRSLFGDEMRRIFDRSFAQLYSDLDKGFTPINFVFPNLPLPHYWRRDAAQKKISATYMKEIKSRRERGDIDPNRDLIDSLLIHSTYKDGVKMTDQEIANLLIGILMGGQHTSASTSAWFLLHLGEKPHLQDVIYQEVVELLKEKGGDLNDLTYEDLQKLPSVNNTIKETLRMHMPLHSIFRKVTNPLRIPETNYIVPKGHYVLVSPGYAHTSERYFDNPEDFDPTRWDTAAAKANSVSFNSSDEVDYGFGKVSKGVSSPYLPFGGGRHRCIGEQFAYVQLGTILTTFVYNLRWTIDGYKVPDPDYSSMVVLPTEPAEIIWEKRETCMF
The test can be described thus: Prevention of CO-complex formation with reduced cytochrome P450, mutant. Format: binding, C. albicans. The conditions noted are these: mutant proteins. Here is the method:
(§2) Microsomes were isolated from C. albicans as described in Marichal, P., et al., Microbiology (1999), 145, 2701-2713, incorporated herein by reference. Prevention of CO-complex formation in the reduced microsomal cytochrome P450 preparation provides an assay that can be used to test the affinity of the protein for an azole. The P-450 content and the effects of azoles on the interaction of CO with the reduced haem iron of P-450 were measured as described in Vanden Bossche, H., et al., Drug Dev Res, 8:287-298 (1986), incorporated herein by reference. The assay employed 0.1 nmol cytochrome P450 and 100 pM to 100 μM ranges of the anti-fungal compounds itraconazole and fluconazole.

In test [6] the test system is strain AD 1002 overexpressing C. albicans Cdr1p. The conditions noted are these: strain AD 1002 overexpressing Cdr1p, Nakamura 2001; cited from earlier work.
A further test has as its system S. cerevisiae AD1-8u(−). The following applies: Nakamura 2001; cited from earlier work.
The target of test [7] is T1, wild-type lanosterol 14 alpha-demethylase protein. The test can be described thus: Prevention of CO-complex formation with reduced cytochrome P450, wild-type. Format: binding, C. albicans. The following applies: wild-type proteins. Details: A 60 kDa protein, corresponding to the lanosterol 14 alpha-demethylase protein, was produced from this eukaryotic expression system; made in house. The protocol:
as §2

The test system of test [8] is mutant lanosterol 14 alpha-demethylase proteins. The test can be described thus: Prevention of CO-complex formation with reduced cytochrome P450, mutant. The conditions noted are these: mutant versus wild-type. Format: binding, C. albicans. The protocol: as §2
Test [9] deals with wild-type HBV polymerase (HBV-WT) (Hepatitis B virus genotype A2 subtype adw2, UniProt P03159). The experiment in a line: DNA polymerase assay (non-radioactive, sandwich ELISA) with cell-free expressed HBV polymerase. The following applies: read-out: IC50, inhibition of DNA polymerase activity, FIG. 3, approximate. On the technique in general: An ELISA detects its analyte on a solid surface through an enzyme-linked reagent.
Chain of wild-type HBV polymerase (HBV-WT) (P03159 whole entry): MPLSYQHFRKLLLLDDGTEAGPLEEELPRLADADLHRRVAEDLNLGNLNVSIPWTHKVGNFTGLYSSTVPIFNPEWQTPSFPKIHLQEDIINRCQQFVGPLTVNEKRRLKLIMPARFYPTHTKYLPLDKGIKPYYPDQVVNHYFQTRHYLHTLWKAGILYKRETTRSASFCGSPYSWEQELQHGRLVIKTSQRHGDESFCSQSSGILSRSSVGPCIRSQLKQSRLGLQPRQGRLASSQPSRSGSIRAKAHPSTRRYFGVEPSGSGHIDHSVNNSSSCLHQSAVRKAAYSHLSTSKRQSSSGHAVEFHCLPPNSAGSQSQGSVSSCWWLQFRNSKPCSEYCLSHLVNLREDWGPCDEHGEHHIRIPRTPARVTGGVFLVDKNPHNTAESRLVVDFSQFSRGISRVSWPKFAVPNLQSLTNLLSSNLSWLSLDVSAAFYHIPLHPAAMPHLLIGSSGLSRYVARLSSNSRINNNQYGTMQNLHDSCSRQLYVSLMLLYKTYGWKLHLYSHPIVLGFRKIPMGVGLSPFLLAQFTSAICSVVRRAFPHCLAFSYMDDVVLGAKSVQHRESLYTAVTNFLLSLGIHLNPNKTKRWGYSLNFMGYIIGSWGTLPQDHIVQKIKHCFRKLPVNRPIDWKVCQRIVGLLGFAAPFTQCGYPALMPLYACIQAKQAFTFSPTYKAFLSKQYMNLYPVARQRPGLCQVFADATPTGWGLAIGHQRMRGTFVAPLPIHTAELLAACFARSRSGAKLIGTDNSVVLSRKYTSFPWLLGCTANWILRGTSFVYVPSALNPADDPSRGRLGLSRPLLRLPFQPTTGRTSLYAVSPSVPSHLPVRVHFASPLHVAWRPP
Text: A sensitive DNA polymerase assay (Roche Molecular Biochemicals, Indianapolis, Ind.) was used to determine the DNA polymerase activity of the expressed HBV polymerase proteins. […] The DNA polymerase assay as shown provides a non-radioactive assay, which measures the ability of the enzyme to digoxigenin and biotin labeled nucleotides into freshly synthesized DNA. The detection of synthesized DNA as a parameter for DNA polymerase activity follows a sandwich ELISA protocol—biotin labeled nucleic acid binds the surface of a microtiter plate coated with streptavidin. An anti-digoxigenin antibody conjugated to peroxidase is incubated with the nucleic acid. Upon addition of the peroxidase substrate, a color change occurs corresponding to the peroxidase activity, which is detected by a microplate ELISA reader. The absorbance samples is directly correlated to the level of DNA polymerase activity in the sample. […] In FIG. 1, HBV-WT refers to the wild-type HBV polymerase. […] PC and NC refer respectively to positive and negative controls. Briefly, the positive control includes Klenow enzyme in polymerase buffer. The negative control includes reticulcyte lysate without the DNA amplicon.
Inhibition of DNA polymerase activity (%) was plotted against compound concentration. […]

The test system of another test is HIV. The conditions noted are these: cited from earlier work.
Test [10] concerns HIV reverse transcriptase, patient-derived protein. Format: biochemical, HIV-1.
Text: The PCR-generated DNA templates were expressed into HIV reverse transcriptase and protease using a coupled reticulocyte lysate system, TNT T7 Quick for PCR DNA (Promega, Madison, Wis.). Sizes of the proteins, as well as a confirmation of their integrity, was confirmed by Western Blot.
Test [11] has as its system DNA gyrase versus topoisomerase IV. The test can be described thus: Ratio of affinity parameter, DNA gyrase to control protein topoisomerase IV. Format: binding, Streptococcus pneumoniae.
A further test deals with mutant DNA Gyrase A. The test can be described thus: Binding assays (affinity), mutant gyrase A. Details: species or system Streptococcus pneumoniae. Here is the method:
as §1

The next test concerns the target T3, wild-type DNA Gyrase A (Streptococcus pneumoniae serotype 4, UniProt P0A4L9+P72524).
T3 construct: A 100 kDa protein, corresponding to the DNA gyrase A protein, was produced from this eukaryotic expression system; made in house; host or cells: cell-free coupled reticulocyte lysate (TNT T7 Quick for PCR DNA, Promega)
The test can be described thus: Binding assays (affinity), wild-type gyrase A. The protocol: as §1

≈ marks a conversion by molar mass, not a printed value. Read-outs that look alike come from different tables or passages of the source.

Chain of wild-type HCV NS5B RNA-dependent RNA polymerase (Q9DHD6 2443-3033 limits assumed): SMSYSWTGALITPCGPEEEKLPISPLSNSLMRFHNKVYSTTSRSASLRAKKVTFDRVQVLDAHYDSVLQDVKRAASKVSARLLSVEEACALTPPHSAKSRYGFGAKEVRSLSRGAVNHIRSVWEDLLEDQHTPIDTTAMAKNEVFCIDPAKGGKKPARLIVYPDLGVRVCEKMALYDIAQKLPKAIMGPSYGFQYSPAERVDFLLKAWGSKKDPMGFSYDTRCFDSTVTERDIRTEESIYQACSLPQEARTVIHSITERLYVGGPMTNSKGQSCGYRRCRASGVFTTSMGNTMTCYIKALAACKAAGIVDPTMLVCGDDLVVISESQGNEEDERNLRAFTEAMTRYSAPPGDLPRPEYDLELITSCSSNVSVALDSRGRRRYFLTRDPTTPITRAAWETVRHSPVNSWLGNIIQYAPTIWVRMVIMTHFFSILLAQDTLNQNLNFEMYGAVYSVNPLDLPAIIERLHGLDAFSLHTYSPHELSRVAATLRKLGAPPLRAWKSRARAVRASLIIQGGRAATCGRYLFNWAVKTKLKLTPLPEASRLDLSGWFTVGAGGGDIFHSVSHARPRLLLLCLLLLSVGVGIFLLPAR
T1 sequence (P10613 whole entry): as the sequence (P10613 whole entry, looked up, stated change not applied) above
T3 sequence (P0A4L9 whole entry): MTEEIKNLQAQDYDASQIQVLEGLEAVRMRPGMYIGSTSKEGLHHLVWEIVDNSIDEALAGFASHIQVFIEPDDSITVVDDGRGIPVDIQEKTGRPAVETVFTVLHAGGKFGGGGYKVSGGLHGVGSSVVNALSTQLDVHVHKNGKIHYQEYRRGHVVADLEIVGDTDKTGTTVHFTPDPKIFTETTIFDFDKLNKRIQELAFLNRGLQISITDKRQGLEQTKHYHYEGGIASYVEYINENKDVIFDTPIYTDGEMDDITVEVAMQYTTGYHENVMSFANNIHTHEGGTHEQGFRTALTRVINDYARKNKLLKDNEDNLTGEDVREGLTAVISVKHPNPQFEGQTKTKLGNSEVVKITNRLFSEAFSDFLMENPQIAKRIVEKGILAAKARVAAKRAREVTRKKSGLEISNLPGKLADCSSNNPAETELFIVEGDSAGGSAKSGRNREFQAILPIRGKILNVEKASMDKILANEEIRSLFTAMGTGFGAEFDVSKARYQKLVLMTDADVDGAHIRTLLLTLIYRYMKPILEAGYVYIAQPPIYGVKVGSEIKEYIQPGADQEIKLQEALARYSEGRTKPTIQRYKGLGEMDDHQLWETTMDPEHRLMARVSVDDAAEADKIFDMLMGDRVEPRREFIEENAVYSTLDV
T3 sequence (P72524 whole entry): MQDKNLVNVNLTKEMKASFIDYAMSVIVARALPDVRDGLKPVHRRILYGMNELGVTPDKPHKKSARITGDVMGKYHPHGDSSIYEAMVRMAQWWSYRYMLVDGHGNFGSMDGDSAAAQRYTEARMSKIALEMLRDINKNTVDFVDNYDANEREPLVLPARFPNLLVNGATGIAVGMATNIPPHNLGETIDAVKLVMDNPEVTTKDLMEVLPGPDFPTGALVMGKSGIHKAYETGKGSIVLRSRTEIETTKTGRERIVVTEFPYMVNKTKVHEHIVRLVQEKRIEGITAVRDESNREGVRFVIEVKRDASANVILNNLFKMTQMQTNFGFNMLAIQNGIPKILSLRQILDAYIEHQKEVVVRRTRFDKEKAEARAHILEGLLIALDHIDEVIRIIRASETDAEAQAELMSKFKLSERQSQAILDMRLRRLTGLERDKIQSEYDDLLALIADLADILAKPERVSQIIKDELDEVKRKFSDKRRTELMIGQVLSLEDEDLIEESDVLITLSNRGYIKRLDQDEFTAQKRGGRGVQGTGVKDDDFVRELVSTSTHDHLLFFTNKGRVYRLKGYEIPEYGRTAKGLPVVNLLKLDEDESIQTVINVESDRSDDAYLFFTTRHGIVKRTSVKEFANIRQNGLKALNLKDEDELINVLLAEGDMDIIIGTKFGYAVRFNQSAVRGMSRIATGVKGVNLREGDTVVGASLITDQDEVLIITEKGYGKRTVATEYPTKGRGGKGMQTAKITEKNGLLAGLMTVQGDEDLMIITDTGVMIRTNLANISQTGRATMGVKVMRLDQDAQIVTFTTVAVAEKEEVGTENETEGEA

As to `CN[C@@H](C)[C@@H]1CCN(c2c(F)cc3c(=O)c(C(=O)O)cn(C4CC4)c3c2OC)C1` [premafloxacin], the “fold increase in inhibitory concentration of mutant versus wild-type enzyme” value in test [1] is listed as 32 fold.

Consider `NC(=O)c1ncn([C@@H]2O[C@H](COP(=O)(O)OP(=O)(O)OP(=O)(O)O)[C@@H](O)[C@H]2O)n1` [ribavirin triphosphates], for which the “effect on RdRp activity” value in [2] and in [3] (wild-type NS5B protein) was “no inhibitory effect” throughout.

With `CCC(C)n1ncn(-c2ccc(N3CCN(c4ccc(OCC5COC(Cn6cncn6)(c6ccc(Cl)cc6Cl)O5)cc4)CC3)cc2)c1=O` (centres unmarked) [itraconazole], the IC50 (in general, the concentration at which inhibition is half-maximal) is 10 to 50 nM in test [4] and 30 to 75 nM in test [5].

With `OC(Cn1cncn1)(Cn1cncn1)c1ccc(F)cc1F` [fluconazole], in test [6], the MIC(80) is 30 µg/mL (≈ 98 µM). For the same compound, the MIC(80), MIC at which 80% of cells were inhibited in the test on S. cerevisiae AD1-8u(−) was 0.625 µg/mL. Besides, the IC50 is 40 nM in test [7] and around 4880 nM in [5]. Also, in [8], the “range of IC50 values, wild-type to mutant” value is listed as “more than 100 fold”.

`CN1C(=O)[C@]23CC4=CC=C[C@H](O)[C@H]4N2C(=O)[C@@]1(CO)SS3` [gliotoxin]: the “effect on RdRp activity” value in test [2] was “inhibited HCV NS5B RdRp of both wild-type and patient derived proteins in a dose-dependent manner”; in test [3] it was “inhibited HCV NS5B RdRp of both wild-type and patient derived proteins in a dose-dependent manner”.

In the case of `Nc1ccn([C@@H]2CS[C@H](COP(=O)(O)OP(=O)(O)OP(=O)(O)O)O2)c(=O)n1` [lamivudine-TP], the 50% inhibitory concentration (IC50) in [9] is around 50 nM.

Turning to `Cc1cn([C@H]2C[C@H](N=[N+]=[N-])[C@@H](CO)O2)c(=O)[nH]c1=O` [AZT, zidovudine], the “reduction of virus replication” value in the test on HIV is on record as “about 90%”. Besides, in [10], the “difference in the IC50 value, patient sample versus wild-type” value is given as “five-fold”.

In the case of `COc1c(N2CCNC(C)C2)c(F)cc2c(=O)c(C(=O)O)cn(C3CC3)c12` (centres unmarked) [gatifloxacin], the “MIC relative to maximal serum drug concentrations reported for standard dosage regimens” value in test [1] is “above the maximal serum drug concentrations”. The “ratio of the calculated affinity parameter for DNA gyrase to that for topoisomerase IV, compared with ciprofloxacin and trovafloxacin” value in test [11] is recorded as “lower”.

`CC(=O)N1CCN(c2ccc(OCC3COC(Cn4ccnc4)(c4ccc(Cl)cc4Cl)O3)cc2)CC1` (centres unmarked) [ketoconazole]: the MIC(80) in [6] is 0.5 µg/mL (≈ 0.941 µM).

As to `NC1CCN(c2c(F)cc3c(=O)c(C(=O)O)cn(C4CC4)c3c2Cl)C1` (centres unmarked) [clinafloxacin], the “MIC relative to maximal serum drug concentrations reported for standard dosage regimens” value in test [1] is “below the maximal serum concentrations”. For the same compound, the “affinity compared with ciprofloxacin, trovafloxacin, gatifloxacin, gemifloxacin and moxifloxacin” value in the test on mutant DNA Gyrase A and on wild-type DNA Gyrase A was “higher affinities” each time. In test [11], the “ratio of the calculated affinity parameter for DNA gyrase to that for topoisomerase IV, compared with ciprofloxacin and trovafloxacin” value is reported as “lower”.

`Cc1c(F)c(N2CCNC(C)C2)cc2c1c(=O)c(C(=O)O)cn2C1CC1` (centres unmarked) [grepafloxacin]: the “MIC relative to maximal serum drug concentrations reported for standard dosage regimens” value in test [1] is recorded as “above the maximal serum drug concentrations”.

As to `CO/N=C1\CN(c2nc3c(cc2F)c(=O)c(C(=O)O)cn3C2CC2)CC1CN` (centres unmarked) [gemifloxacin], the “MIC relative to maximal serum drug concentrations reported for standard dosage regimens” value in [1] was “below the maximal serum concentrations”.

With `C[C@@H]1CN(c2c(F)c(N)c3c(=O)c(C(=O)O)cn(C4CC4)c3c2F)C[C@H](C)N1` [sparfloxacin], in test [1], the “fold increase in inhibitory concentration of mutant versus wild-type enzyme” value is “about 4 fold”.

For the compound `N[C@@H]1[C@H]2CN(c3nc4c(cc3F)c(=O)c(C(=O)O)cn4-c3ccc(F)cc3F)C[C@@H]12` [trovafloxacin], the “MIC relative to maximal serum drug concentrations reported for standard dosage regimens” value in [1] was “above the maximal serum drug concentrations”.

The values above are taken from patent US20030039957A1, “Functional protein expression for rapid cell-free phenotyping” (priority 2000, published 2003).
